{
  "source": "patent US20080275081A1",
  "about": "“Novel thrombomodulin expression promoters” (Kowa Company, Ltd., priority 2002, published 2008)",
  "key": {"[1]": {"test_system": "TM m-RNA expression in HUVECs", "experiment": "TM mRNA expression in HUVECs by Northern blot, time course", "type": "cell-based, human", "settings": "10^-5 M, incubated for the indicated time, FIG. 2", "experimental": "HUVECs were plated in HuMedia-EG2 medium (Kurabo Inc.) to which 2% (vol/vol) fetal bovine serum, 50 μg/ml gentamicin, 50 ng/ml amphotericin B, 10 ng/ml hEGF, 5 ng/ml hFGF-B, 1 μg/ml hydrocortisone and 10 μg/ml heparin were added. Subsequently, pitavastatin (at a final concentration of 10^−5 M) was added to the medium, and incubated for the indicated time with 5% CO2 at 37° C. Total RNA was extracted by using TRIZOL reagent (Life Technologies, Inc.) and the levels of TM m-RNA expression were measured by the Northern blot method, which is a usual method."}, "[2]": {"test_system": "thrombomodulin (TM) antigen in normal human umbilical vein endothelial cells (HUVECs)", "experiment": "TM antigen level in HUVECs by enzyme immunoassay after 24 h incubation with statin", "type": "cell-based", "settings": "10^-7 M to 10^-3 M, control (0.01% DMSO) = 100%, FIG. 1", "experimental": "Normal human umbilical vein endothelial cells (HUVECs) were plated at a density of 2×10^5 cells/ well in a 24-well plate with HuMedia-EG2 medium (Kurabo Inc.) to which 2% (vol/vol) fetal bovine serum, 50 μg/ml gentamicin, 50 ng/ml amphotericin B, 10 ng/ml hEGF, 5 ng/ml hFGF-B, 1 μg/ml hydrocortisone and 10 μg/ml heparin were added. Subsequently, each test substance (pitavastatin, fluvastatin and pravastatin) was added to the medium at a final concentration of 10^−7 M to 10^−3 M, and incubated for 24 hours with 5% CO2 at 37° C. After the incubation, the cells were washed 3 times with a phosphate buffer solution (pH 7.4), and suspended in 50 mmol/L Tris-HCl (pH 7.4) that contained 0.15 mol/L NaCl, 0.5% Triton X-100 and 1 mmol/L benzamide hydrchloride, then, TM was extracted. The levels of TM antigen were measured by enzyme immunoassay using the monoclonal antibodies TMmAb 2, 11 and 20. In the case where the value of the control (containing an equivalent weight of DMSO (0.01%)) is assigned to 100%, the effects on the TM antigen levels existing in the cellular proteins due to the addition of each test substance were measured."}},
  "data": [
    {"smiles": "O=C(O)C[C@H](O)C[C@H](O)/C=C/c1c(C2CC2)nc2ccccc2c1-c1ccc(F)cc1", "note": "[pitavastatin, (+)-(3R, 5S, 6E)-7-[2-cyclopropyl-4-(4-fluorophenyl)-3-quinolyl]-3,5-dihydroxy-6-heptenoic acid]", "values": [
      {"measurement": "ratio of the TM expression level (TM m-RNA) to the control, time course", "setting": "[1]", "result": "increased drastically after 12 hours"},
      {"measurement": "ratio of the TM antigen level/cellular protein to the control", "setting": "[2]", "result": "significant increase level"}
    ]}
  ]
}
